Measurements published in US12459951B2, “Compounds that interact with RAS superfamily proteins for treatment of cancers, inflammatory diseases, rasopathies, and fibrotic disease” (SHY Therapeutics, LLC, priority 2022, dated 2025).
Where two headings read alike, the source gives them in different places.

Key:
[1] = test system: MiaPaca-2 (expressing KRAS G12C mutant); assay: Proliferation Assay (Cell Viability Assay); type: cell-based; details: Homo sapiens, MIA PaCa-2
Outline: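 After 2–4 days' exposure at 37 °C, 5% CO2 to a single 10 μM final concentration or a dilution series (IC50), percent proliferation inhibition was derived from CellTiter 96 Aqueous One viability readings. The medium contained 0.3% DMSO and 10% FBS. KRAS G12C MiaPaca-2 cells were plated at 2000–5000/well the day before.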

[2] = test system: KRas G12D mutant; assay: Ras GTP Binding Domain Inhibition Assay (Ras Superfamily Assay); details: 20 μM compound; for KRas G12D mutant + SOS: % inh.: with SOS; for KRas G12D mutant: % inh.: without SOS
Outline: (§1)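 Binding of 100 nM fluorescent GTP (Cy3 or Cy5, 45 min, room temperature) was read after washes from plate-captured His-tagged protein. Beforehand, compounds at 20 μM or in dilution series for IC50 sat 3 h on the protein in Tris buffer pH 7.4 or 7.0 with 1% DMSO, Sos GEF optionally added for the last hour.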

[3] = test system: KRas wild type; assay: as above; details: 20 μM compound; for KRas wild type + SOS: % inh.: with SOS; for KRas wild type: % inh.: without SOS
Outline: as §1

[4] = biological target: T1, Rac-1 (Homo sapiens, UniProt P63000); assay: as above; details: read-out: Rac-1: % inh.
T1 construct: made in house
Outline: as §1

[5] = read-out: Proliferation in MiaPaca-2: IC50

SMILES | IC50 [1, 5] [nM] | KRas G12D mutant + SOS: % inh. [2] | KRas G12D mutant: % inh. [2] | KRas wild type + SOS: % inh. [3] | KRas wild type: % inh. [3] | inhibition at 20 µM [4] [%] | IC50 ([1]; Proliferation assay, MiaPaca-2, read-out: MiaPaca-2 IC50 (nM) Pancreatic) [nM]
CCOc1ccnc(Nc2nc(-c3nccn3C)nn3cc(-c4ccn(C5CC5)n4)c(C)c23)c1 [Compound 141, 6-(1-Cyclopropyl-1H-pyrazol-3-yl)-N-(4-ethoxypyridin-2-yl)-5-methyl-2-(1-methyl-1H-imidazol-2-yl)pyrrolo[2,1-f][1,2,4]triazin-4-amine] | < 150 | D (D = 76-100% inhibition) | D (D = 76-100% inhibition) | B (B = 26-49% inhibition) | C (C = 50-75% inhibition) | 76 to 100 | 
CO[C@H]1CC[C@@H](Nc2nc(-c3nccn3C)nn3cc(-c4cccnc4)c(C)c23)C1 (racemic) [Compound 155, rac N-((1R,3S)-3-methoxy-cyclopentyl)-5-methyl-2-(1-methyl-1H-imidazol-2-yl)-6-(pyridin-3-yl)pyrrolo[2,1-f][1,2,4]triazin-4-amine] | > 1000 | A (A = 1-25% inhibition) | A (A = 1-25% inhibition) | A (A = 1-25% inhibition) | A (A = 1-25% inhibition) | 1 to 25 | 
Cc1c(-c2ccn(C3CC3)n2)cn2nc(-c3nccn3C)nc(Nc3cc(O)ccn3)c12 [Compound 150, 2-((6-(1-Cyclopropyl-1H-pyrazol-3-yl)-5-methyl-2-(1-methyl-1H-imidazol-2-yl)pyrrolo[2,1-f][1,2,4]triazin-4-yl)amino)pyridin-4-ol] | > 1000 | D (D = 76-100% inhibition) | D (D = 76-100% inhibition) | D (D = 76-100% inhibition) | D (D = 76-100% inhibition) | 50 to 75 | 
COc1ccnc(Nc2nc(-c3nccn3C)nn3cc(-c4ccn(C)n4)c(C)c23)c1 [Compound 102, N-(4-Methoxypyridin-2-yl)-5-methyl-2-(1-methyl-1H-imidazol-2-yl)-6-(1-methyl-1H-pyrazol-3-yl)pyrrolo[2,1-f][1,2,4]triazin-4-amine] | < 150 | D (D = 76-100% inhibition) | D (D = 76-100% inhibition) | D (D = 76-100% inhibition) | D (D = 76-100% inhibition) | 76 to 100 | 1 to 10
COc1cccnc1Nc1nc(-c2nccn2C)nn2cc(-c3ccn(C)n3)c(C)c12 [Compound 112, N-(3-Methoxypyridin-2-yl)-5-methyl-2-(1-methyl-1H-imidazol-2-yl)-6-(1-methyl-1H-pyrazol-3-yl)pyrrolo[2,1-f][1,2,4]triazin-4-amine] | < 150 | A (A = 1-25% inhibition) | A (A = 1-25% inhibition) | 0 (0 = 0% inhibition) | A (A = 1-25% inhibition) | 0 | 
Cc1c(-c2ccn(C3CC3)n2)cn2nc(-c3nccn3C)nc(Nc3cc(OC4CC4)ccn3)c12 [Compound 142, N-(4-Cyclopropoxypyridin-2-yl)-6-(1-cyclopropyl-1H-pyrazol-3-yl)-5-methyl-2-(1-methyl-1H-imidazol-2-yl)pyrrolo[2,1-f][1,2,4]triazin-4-amine] | < 150 | D (D = 76-100% inhibition) | D (D = 76-100% inhibition) | D (D = 76-100% inhibition) | D (D = 76-100% inhibition) | 76 to 100 | 
